Patent publication US20220079960A1, “USE OF P1P DERIVATIVES AS THERAPEUTIC AGENT FOR SEPSIS” (AXCESO BIOPHARMACO.,LTD., priority 2019, published 2022)
Like-named read-outs stand apart in the source and are kept apart here.

What was measured:
[1] = test system: Human umbilical vein endothelial cell (HUVEC); experiment: Proliferation of human vascular endothelial cells, MTT assay; type: cell-based; conditions: 10 nM, 100 nM and 1000 nM, 48 hours, compared with S1P (FIG. 6)
Method: Human umbilical vein endothelial cell (HUVEC) used in the experiment was purchased from Promocell, and cultured in an incubator at 37° C., 5% CO2 using Endothelial Cell Growth Medium 2 as a culture medium. To confirm the proliferation effect of P1P drug, HUVEC cells were treated with P1P or cP1P drug at concentrations of 10 nM, 100 nM and 1000 nM, respectively, and cultured for 48 hours. The cell proliferation rate was measured according to the manufacturer's method using MTT assay (Molecular Probes). As a comparison group, S1P was used at the same concentration and conditions.

Balb/c mice = experiment: LPS sepsis mouse model: effect of drugs on survival rate; type: in vivo; conditions: for Survival rate (%): drug 40 μg/mouse i.p. 5 minutes after LPS
Method: For the experiment of the survival rate of mice after LPS administration, 7-week-old Balb/c mice were purchased from Orient Bio and adapted to the laboratory. Then, LPS (Sigma) was dissolved in phosphate buffer solution (PBS) at a concentration of 400 μg/mouse, 200 μg/mouse, 170 μg/mouse, 150 μg/mouse, 125 μg/mouse, and 100 μg/mouse, and 100 uL of each was injected into the abdominal cavity of a mouse.
(§1) To this end, the LPS concentration was determined to be 150 μg/mouse, and the P1P drug was intraperitoneally injected at a concentration of 40 μg/mouse 5 and 60 minutes after intraperitoneal injection of LPS. The survival rate was measured by observation for 72 hours at 12 hour intervals. In another experiment, P1P drug was injected intraperitoneally at a concentration of 40 μg/mouse 1 hour after intraperitoneal injection of LPS of 125 μg/mouse to compare the survival rate of mice. In the same way, the survival rate was measured while changing the P1P concentration.
as §1, with “cP1P” for “P1P”, “mice.” for “mice. In the same way, the survival rate was measured while changing the P1P concentration.”
Soybean lecithin called Lipoid S-75 was used to prepare the liposome, and 20 mg of lecithin was dissolved in 1 mL of chloroform. P1P or cP1P was dissolved in 1 mL of chloroform/methanol (2:1, v/v) solvent in an amount of 2 mg, 1 mg or 0.5 mg, respectively, and mixed with the lecithin solution. A thin lipid film was made by removing the organic solvent from the mixed solution using nitrogen gas or a rotary evaporator. The thin lipid film was stored in a vacuum desiccator overnight to completely remove the organic solvent remaining on the film. 5 mL of a phosphate buffer solution was added to the thin lipid film and stirred for 30 minutes to prepare multilamellar vesicles (MLV, large liposomes). The prepared MLV particles were sonicated for 2 minutes in an ice bath to make small unilamellar vesicles (SUV) of 100 nm or less. This sonication process was repeated twice. Only the supernatant obtained by centrifugation of the prepared SUV at 12000 rpm for 5 minutes was used in the experiment. Liposomes containing P1P or cP1P drug (P1P-liposomes/cP1P-liposomes) were used in an experiment to increase the survival rate of mice using LPS. To this end, LPS of 170 μg/mouse, which is higher than the conventional LPS concentration (125-150 μg/mouse), was injected into the abdominal cavity of the mouse. P1P or cP1P drug was administered at 40 μg/mouse 5 minute after LPS administration, and 100 μl of P1P-liposomes and cP1P-liposomes (P1P and cP1P of about 40 μg/mouse) were injected into the abdominal cavity of the mouse, and the survival rate change was determined over time.
The effect of P1P to treat sepsis was tested under the same conditions as described in the experimental method. P1P of 40 μg/mouse was administered intraperitoneally and intravenously 5 minutes after intraperitoneal injection of LPS of 150 μg/mouse. […] When the P1P drug was administered 1 hour after LPS administration, the survival rate was about 40% for intraperitoneal injection and 20% for intravenous injection (FIG. 2b). These indicate that P1P effectively ameliorated sepsis induced after LPS treatment. Furthermore, P1P of 40 μg/mouse was administered by intraperitoneal injection 1 hour after intraperitoneal injection of 125 μg/mouse of LPS. […] In the case of 20 μg/mouse concentration, the survival rate was 80%, and in the case of 10 μg/mouse concentration, the survival rate was about 60% (FIG. 3b). It was confirmed that P1P increased the survival rate in a concentration-dependent manner. […]

SIRT1 = experiment: Expression of SIRT1 in macrophages, RT-PCR; type: cell-based; conditions: Raw 264.7 macrophages; 0.01-1 μM; RT-PCR 24 hours later (FIG. 8)
Method: The macrophage cell line used in the experiment was Raw 264.7 cell line purchased from ATCC, and Dulbeco's Modified Eagle's Media high glucose (with 10% FBS, 0.5% P/S) was used as a medium for culturing macrophages. Macrophages were cultured in an incubator at 37° C., 5% CO2. Macrophages were treated with P1P or cP1P drug at concentrations of 0.01 μM, 0.1 μM, and 1 μM, respectively and then LPS of 100 ng/ml after 4 hours, and cultured for 24 hours. The change in SIRT1 protein was measured by RT-PCR.
Expression of SIRT1 protein is very important in the treatment of sepsis. When sepsis is induced, the synthesis and activity of SIRT1 protein is reduced. Macrophages were treated with P1P drugs during culture, and the expression level of SIRT1 protein was confirmed by RT-PCR 24 hours later.

Solubility in water = type: physicochemical
TNF-α = experiment: Inflammatory cytokine (TNF-α) secretion after LPS treatment in macrophages, ELISA; type: cell-based; conditions: Mus musculus
Method: The macrophage cell line used in the experiment was Raw 264.7 cell line purchased from ATCC, and Dulbeco's Modified Eagle's Media high glucose (with 10% FBS, 0.5% P/S) was used as a medium for culturing macrophages. Macrophages were cultured at 37° C., 5% CO2 incubator. Macrophages were treated with P1P or cP1P drugs at concentrations of 0.02 μM, 0.1 uM, 0.5 μM and 1 μM, respectively and then LPS of 1 ng/ml after 6 hours, and cultured for 4 hours. And then changes of inflammatory cytokines (Tumor necrosis factor alpha, TNF-α) were measured by the manufacturer's method using ELISA (BD OPTEIAT™). As a comparison group, S1P was used at the same concentration and conditions.
To this end, macrophage cell lines were treated with LPS to increase inflammatory cytokines, and the efficacy of P1P and derivatives thereof on inflammatory cytokine secretion was evaluated. Macrophage cell lines were treated with P1P drug or cP1P drug, and 6 hours later, treated with LPS at a concentration of 500 ng/mL for 4 hours.

[2] = test system: Human umbilical vein endothelial cell (HUVEC); experiment: Survival of human vascular endothelial cells under oxidative stress (H2O2), MTT assay; type: cell-based; conditions: for cell viability compared with S1P: 500 μM hydrogen peroxide (FIG. 7)
Method: Human umbilical vein endothelial cell (HUVEC) used in the experiment was purchased from Promocell, and cultured in an incubator at 37° C., 5% CO2 using Endothelial Cell Growth Medium 2 as a culture medium. To confirm the efficacy of P1P drug in an oxidative stress environment, HUVEC cells were pretreated with P1P or cP1P at concentrations of 10 nM, 100 nM, and 1000 nM for 1 hour, and then exposed to oxidative stress by treatment with 500 μM hydrogen peroxide (H2O2) for 6 hours. The efficacy of the […] drug on the survival of HUVEC cells after 6 hours of exposure to oxidative stress was confirmed by MTT assay. As a comparison group, S1P was used at the same concentration and conditions.
In addition to causing inflammation, LPS promotes oxidative stress to promote vascular endothelial cell death. To analyze the effect of the present drugs, oxidative stress was induced in vascular endothelial cells by treatment with 500 μM of hydrogen peroxide.

[3] = S1P administered directly; cited from earlier work
[4] = LPS 125 μg/mouse i.p., drug 40 μg/mouse i.p. 1 hour after LPS (FIG. 3a, FIG. 4b)
[5] = LPS 150 μg/mouse i.p., drug 40 μg/mouse intraperitoneally 5 minutes after LPS (FIG. 2a, FIG. 4a)
[6] = RAW264.7, read-out: inhibitory efficacy on inflammatory cytokine (TNF-α) production

| SMILES | efficacy on proliferation of vascular endothelial cells [1] | survival rate (Balb/c mice; [4]) | survival rate (Balb/c mice; [5]) | Survival rate (%) (Balb/c mice; LPS 170 μg/mouse i.p., 0 h) | Survival rate (%) (Balb/c mice; LPS 170 μg/mouse i.p., 12 h) | Survival rate (%) (Balb/c mice; LPS 170 μg/mouse i.p., 24 h) | Survival rate (%) (Balb/c mice; LPS 170 μg/mouse i.p., 36 h) | Survival rate (%) (Balb/c mice; LPS 170 μg/mouse i.p., 48 h) | Survival rate (%) (Balb/c mice; LPS 170 μg/mouse i.p., 72 h) | expression level of SIRT1 protein (SIRT1) | solubility in water (Solubility in water) | inhibition at 1 µM (TNF-α; [6]) | cell viability compared with S1P [2] | Survival rate (%) (Balb/c mice; LPS 150 μg/mouse i.p., 0 h) | Survival rate (%) (Balb/c mice; LPS 150 μg/mouse i.p., 12 h) | Survival rate (%) (Balb/c mice; LPS 150 μg/mouse i.p., 24 h) | Survival rate (%) (Balb/c mice; LPS 150 μg/mouse i.p., 36 h) | Survival rate (%) (Balb/c mice; LPS 150 μg/mouse i.p., 48 h) | Survival rate (%) (Balb/c mice; LPS 150 μg/mouse i.p., 72 h) | other results |
| --- | --- | --- | --- | --- | --- | --- | --- | --- | --- | --- | --- | --- | --- | --- | --- | --- | --- | --- | --- | --- |
| CCCCCCCCCCCCCC[C@@H](O)[C@H]1OP(=O)(O)OC[C@@H]1N [cP1P, O-cyclic P1P] | higher than that of S1P | about 100% | ≥ 70% | 100% | 80% | 60% | 40% | 40% | 40% | increased SIRT1 protein even at very low concentrations | poorly soluble in water | 35% | higher cell viability than S1P |  |  |  |  |  |  |  |
| CCCCCCCCc1ccc(CCC(N)(CO)CO)cc1 [FTY720, fingolimod, reference compound] |  |  |  |  |  |  |  |  |  |  |  |  |  | 100% | 100% | 40% | 20% | 20% | 20% |  |
| CCCCCCCCCCCCC/C=C/[C@@H](O)[C@@H](N)COP(=O)(O)O [S1P, sphingosine-1-phosphate, reference compound] |  |  |  |  |  |  |  |  |  |  |  |  |  | 100% | 100% |  | 40% | 40% | 40% | degradation rate in the blood [3]: high degradation rate in the blood; inhibition at 1 µM (TNF-α; RAW264.7, 1 μM, Raw 264.7 macrophages, drug 6 hours before LPS, LPS 4 hours, ELISA, read-out: inhibitory efficacy on inflammatory cytokine (TNF-α) production): 19% |
| CCCCCCCCCCCCCC[C@@H](O)[C@H](O)[C@H](N)COP(=O)(O)O (stereo in doubt) [P1P, Phytosphingosine-1-phosphate] | higher than that of S1P | 100% | ≥ 80% | 100% | 80% | 40% | 20% | 20% | 20% | increased SIRT1 protein even at very low concentrations | poorly soluble in water | 49% | higher cell viability than S1P | 100% | 100% | 100% |  | 80% | 80% | survival rate (Balb/c mice; LPS 125 μg/mouse, drug 10 μg/mouse 60 minutes after LPS (FIG. 3b)): about 60%; survival rate (Balb/c mice; LPS 125 μg/mouse, drug 20 μg/mouse 60 minutes after LPS (FIG. 3b)): 80%; survival of mice while varying drug concentration (Balb/c mice; LPS 125 μg/mouse, drug 40 μg/mouse 60 minutes after LPS, up to 72 hours (FIG. 3b)): all of them survived up to 72 hours; survival rate (Balb/c mice; LPS 150 μg/mouse i.p., drug 40 μg/mouse intravenously 5 minutes after LPS (FIG. 2a)): ≥ 80%; survival rate (Balb/c mice; LPS 150 μg/mouse i.p., drug by intraperitoneal injection 1 hour after LPS (FIG. 2b)): about 40%; survival rate (Balb/c mice; LPS 150 μg/mouse i.p., drug by intravenous injection 1 hour after LPS (FIG. 2b)): 20%; cell viability ([2]; 500 μM hydrogen peroxide, untreated control about 40%): ≥ 70% |
